Reference: patent US12252524B2, “GIP/GLP1 co-agonist compounds” (Eli Lilly and Company, priority 2018, dated 2025)
Numbered stars: 1 amine (or outer) side, 2 acyl side, 3 side chain; on linkers, the order of the positions; unused ones are H or OH. Square brackets hold non-standard residues; d marks the D form. Side chains are listed from the residue outwards. Peptide text beside a SMILES is read from it. * marks the point of attachment. C20 diacid = O=C(O)CCCCCCCCCCCCCCCCCCC(=O)*; C18 diacid = O=C(O)CCCCCCCCCCCCCCCCC(=O)*; γGlu = O=C(O)[C@H](CCC(=O)[*:2])N[*:1]; αMeL = CC(C)C[C@](C)(N)C(=O)O; Orn = NCCC[C@H](N)C(=O)O; AEEA = NCCOCCOCC(=O)O; Aib = CC(C)(N)C(=O)O

Experiments:
[1] = molecular target: T1, human GLP-1R (Homo sapiens, UniProt P43220); assay: GLP-1R CHO cell β-arrestin recruitment assay; format: cell-based; parameters: host or cells: CHO-K1 PathHunter cells, assay-ready frozen; conditions: for EC50: CHO-K1 cells, PathHunter β-arrestin-2 recruitment, 0.1% casein, read-out: hGLP1R B-Arrestin2 Rel EC50 uM (SEM, n); for hGLP1R B-Arrestin2 % Top: normalized to GLP-1 maximum control
T1 sequence (P43220 24-463): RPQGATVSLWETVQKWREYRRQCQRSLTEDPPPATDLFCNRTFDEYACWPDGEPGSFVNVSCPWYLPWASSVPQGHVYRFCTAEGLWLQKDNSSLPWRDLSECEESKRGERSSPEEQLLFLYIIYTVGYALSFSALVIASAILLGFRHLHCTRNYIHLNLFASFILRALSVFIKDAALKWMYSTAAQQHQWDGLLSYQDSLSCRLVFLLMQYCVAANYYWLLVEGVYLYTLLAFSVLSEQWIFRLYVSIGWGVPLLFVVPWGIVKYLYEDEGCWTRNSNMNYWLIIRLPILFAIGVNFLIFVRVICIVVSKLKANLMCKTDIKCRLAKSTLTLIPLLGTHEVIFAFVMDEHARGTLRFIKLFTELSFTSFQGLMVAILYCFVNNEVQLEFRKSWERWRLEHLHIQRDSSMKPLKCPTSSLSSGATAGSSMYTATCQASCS
Summary of the method: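 PathHunter CHO-K1 cells with ProLink-tagged human GLP-1R and enzyme-acceptor-tagged β-arrestin-2 treated with serially diluted peptides in assay buffer containing 0.1% hydrolyzed casein, 90 min at 37 °C.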

[2] = molecular target: T2, human GIP receptor (Homo sapiens, UniProt P48546); assay: [125I]-GIP binding (SPA), human GIP receptor; conditions: read-out: hGIPR Ki, nM (SEM, n)
T2 construct: expressed in transfected cells; crude membranes
T2 sequence (P48546 22-466): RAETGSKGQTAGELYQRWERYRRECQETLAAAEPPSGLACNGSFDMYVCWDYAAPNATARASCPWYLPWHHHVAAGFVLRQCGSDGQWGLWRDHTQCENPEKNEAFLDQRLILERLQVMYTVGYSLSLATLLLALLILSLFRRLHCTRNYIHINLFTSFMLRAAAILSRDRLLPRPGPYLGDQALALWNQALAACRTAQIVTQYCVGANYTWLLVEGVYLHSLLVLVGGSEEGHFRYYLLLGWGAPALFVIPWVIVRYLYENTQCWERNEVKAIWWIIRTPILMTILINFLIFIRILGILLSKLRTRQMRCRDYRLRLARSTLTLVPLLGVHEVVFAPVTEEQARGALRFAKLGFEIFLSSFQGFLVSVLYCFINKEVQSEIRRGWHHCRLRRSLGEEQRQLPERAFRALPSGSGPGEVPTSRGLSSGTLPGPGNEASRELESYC

[3] = molecular target: T3, gastric inhibitory peptide receptor (GIPR) (Homo sapiens, UniProt P48546); assay: cAMP pharmacological functional assay in presence of casein, hGIPR; format: cell-based; conditions: HEK293 cells expressing hGIPR, 0.1% Casein, geometric mean; read-out: hGIPR cAMP Rel EC50 nM (SEM, n)
T3 sequence (P48546 22-466): T2 sequence (P48546 22-466)

[4] = molecular target: T1, human GLP-1R; assay: [125I]-GLP-1 binding (SPA), human GLP-1 receptor; parameters: expressed in transfected cells; crude membranes; conditions: read-out: hGLP1R Ki, (nM) (SEM, n)
Summary of the method: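 Ki values are geometric means with SEM over independent replicates on different days, derived from IC50s fitted by four-parameter nonlinear regression. The assay used crude cell membranes in HEPES buffer, pH 7.4, containing CaCl2, MgCl2, bacitracin and TWEEN-20.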

[5] = molecular target: T1, human GLP-1R; assay: GLP-1R HEK293 cell membrane [35S]GTPγS binding assay; format: biochemical; parameters: expressed in transfected cells; host or cells: HEK293 cells expressing human GLP-1R; membranes; conditions: HEK293 cell membranes expressing human GLP-1R, [35S]GTPγS binding; read-out: hGLP1R GTPgS Rel EC50 nM (SEM, n)
Summary of the method: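 Membranes from HEK293 cells expressing the receptor incubated with peptide and […] [35S]GTPγS in HEPES pH 7.4 buffer with NaCl, MgCl2, saponin and BSA, 30 min at room temperature. Gαs-bound label captured by anti-Gαs antibody/SPA beads and counted; EC50 from four-parameter logistic fit.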

[6] = molecular target: T4, human Gcg receptor (Homo sapiens, UniProt P47871); assay: [125I]-Glucagon binding (SPA), human Gcg receptor; conditions: read-out: hGLcgR Ki, nM (SEM, n)
T4 construct: expressed in transfected cells; crude membranes
T4 sequence (P47871 26-477): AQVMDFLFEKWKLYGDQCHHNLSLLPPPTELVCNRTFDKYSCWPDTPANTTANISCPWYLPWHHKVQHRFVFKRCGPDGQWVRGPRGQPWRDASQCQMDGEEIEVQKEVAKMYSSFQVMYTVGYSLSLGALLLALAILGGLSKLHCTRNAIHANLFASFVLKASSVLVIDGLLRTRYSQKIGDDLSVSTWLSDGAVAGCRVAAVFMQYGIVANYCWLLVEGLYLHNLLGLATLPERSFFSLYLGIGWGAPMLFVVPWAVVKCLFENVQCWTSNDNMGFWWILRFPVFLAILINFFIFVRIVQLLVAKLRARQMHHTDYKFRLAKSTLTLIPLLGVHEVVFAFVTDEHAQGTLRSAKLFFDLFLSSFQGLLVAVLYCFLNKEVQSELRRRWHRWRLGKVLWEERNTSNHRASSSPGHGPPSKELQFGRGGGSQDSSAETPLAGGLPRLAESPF
Summary of the method: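 Scintillation counts are taken after membranes and WGA beads incubate and settle for 12 hours at room temperature. Buffer is 25 mM HEPES, pH 7.4, with CaCl2, MgCl2, bacitracin and Tween-20. Ki values, from four-parameter IC50 fits, are geometric means over independent days.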

[7] = molecular target: human GLP-1 receptor (GLP-1R) (Homo sapiens, UniProt P43220); assay: cAMP pharmacological functional assay in presence of casein, hGLP-1R; format: cell-based; conditions: HEK293 cells expressing hGLP-1R, 0.1% Casein, geometric mean; read-out: hGLP1R cAMP Rel EC50 nM (SEM, n)
Chain of human GLP-1 receptor (GLP-1R) (P43220 24-463): as the sequence (P43220 24-463) above

Structure (SMILES): CC[C@H](C)[C@H](NC(=O)[C@H](CC(C)C)NC(=O)[C@H](Cc1ccc(O)cc1)NC(=O)[C@H](CCC(=O)O)NC(=O)[C@@H](NC(=O)[C@H](Cc1ccccc1)NC(=O)[C@H](CCC(=O)O)NC(=O)C(C)(C)NC(=O)[C@H](CCC(N)=O)NC(=O)[C@H](C)NC(=O)[C@H](CCCCNC(=O)COCCOCCNC(=O)COCCOCCNC(=O)CC[C@H](NC(=O)CCCCCCCCCCCCCCCCCCC(=O)O)C(=O)O)NC(=O)[C@H](CCCN)NC(=O)[C@H](CC(=O)O)NC(=O)[C@H](CC(C)C)NC(=O)[C@](C)(CC(C)C)NC(=O)[C@@H](NC(=O)[C@H](CO)NC(=O)[C@H](Cc1ccc(O)cc1)NC(=O)[C@H](CC(=O)O)NC(=O)[C@H](CO)NC(=O)[C@@H](NC(=O)[C@H](Cc1ccccc1)NC(=O)[C@@H](NC(=O)CNC(=O)[C@H](CCC(=O)O)NC(=O)C(C)(C)NC(=O)[C@H](N)Cc1ccc(O)cc1)[C@@H](C)O)[C@@H](C)O)[C@@H](C)CC)C(C)C)C(=O)N[C@@H](C)C(=O)NCC(=O)NCC(=O)N1CCC[C@H]1C(=O)N[C@@H](CO)C(=O)N[C@@H](CO)C(=O)NCC(=O)N[C@@H](C)C(=O)N1CCC[C@H]1C(=O)N1CCC[C@H]1C(=O)N1CCC[C@H]1C(=O)N[C@@H](CO)C(N)=O [Example 359] (H-[dY][Aib]EGTFTSDYSI[αMeL]LD[Orn]K([AEEA-AEEA-γGlu-C20 diacid])AQ[Aib]EFVEYLIAGGPSSGAPPPS-NH2)
- EC50 [1]: 0.0841 µM
- hGLP1R B-Arrestin2 % Top [1]: 28.4%
- Ki [2]: 0.0874 nM
- EC50 [3]: 0.172 nM
- Ki [4]: 2.59 nM
- EC50 [5]: 0.496 nM
- Ki [6]: > 982 nM
- EC50 [7]: 0.131 nM

Structure (SMILES): CC[C@H](C)[C@H](NC(=O)[C@H](CC(C)C)NC(=O)[C@H](Cc1ccc(O)cc1)NC(=O)[C@@H](CCC(=O)O)NC(=O)[C@@H](NC(=O)[C@H](Cc1ccccc1)NC(=O)[C@H](C)NC(=O)C(C)(C)NC(=O)[C@H](CCC(N)=O)NC(=O)[C@H](C)NC(=O)[C@H](CCCCNC(=O)COCCOCCNC(=O)COCCOCCNC(=O)CC[C@H](NC(=O)CCCCCCCCCCCCCCCCC(=O)O)C(=O)O)NC(=O)[C@H](CCCN)NC(=O)[C@H](CC(=O)O)NC(=O)[C@H](CC(C)C)NC(=O)[C@](C)(CC(C)C)NC(=O)[C@@H](NC(=O)[C@H](CO)NC(=O)[C@H](Cc1ccc(O)cc1)NC(=O)[C@H](CC(=O)O)NC(=O)[C@H](CO)NC(=O)[C@@H](NC(=O)[C@H](Cc1ccccc1)NC(=O)[C@@H](NC(=O)CNC(=O)[C@H](CCC(=O)O)NC(=O)C(C)(C)NC(=O)[C@H](N)Cc1ccc(O)cc1)[C@@H](C)O)[C@@H](C)O)[C@@H](C)CC)[C@@H](C)CC)C(=O)N[C@@H](C)C(=O)NCC(=O)NCC(=O)N1CCC[C@H]1C(=O)N[C@@H](CO)C(=O)N[C@@H](CO)C(=O)NCC(=O)N[C@@H](C)C(=O)N1CCC[C@H]1C(=O)N1CCC[C@H]1C(=O)N1CCC[C@H]1C(=O)N[C@@H](CO)C(N)=O [Example 363] (H-[dY][Aib]EGTFTSDYSI[αMeL]LD[Orn]K([AEEA-AEEA-γGlu-C18 diacid])AQ[Aib]AFI[dE]YLIAGGPSSGAPPPS-NH2)
- EC50 [1]: 0.135 µM
- hGLP1R B-Arrestin2 % Top [1]: 22.1%
- Ki [2]: 0.17 nM
- EC50 [3]: 0.145 nM
- Ki [4]: 3.89 nM
- EC50 [5]: 0.943 nM
- Ki [6]: > 1020 nM
- EC50 [7]: 0.208 nM
